Where two headings read alike, the source gives them in different places.
Legend:
B-Raf [1] = target: T1, B-Raf (Homo sapiens, UniProt P15056, V600E); experiment: cell-based; type: cell-based; details: for EC50: B-Raf ITDRFCETSA pEC50, 2 h incubation with live A375 cells, mean ± standard deviation of ⩾3 technical repeats
purified B-Raf protein = purified B-Raf protein (Homo sapiens, UniProt P15056); experiment: Differential scanning fluorimetry with purified B-Raf protein; type: binding; details: same concentration (30 µM); data not shown
B-Raf [2] = target: T1, B-Raf; experiment: B-Raf CETSA HT single-concentration screen of kinase inhibitor library; type: cell-based; details: 30 µM, 2 h incubation with live A375 cells, 49 °C heatshock, two technical repeats
[3] = A375 cells, at least three technical repeats

T1 sequence (P15056 whole entry V600E): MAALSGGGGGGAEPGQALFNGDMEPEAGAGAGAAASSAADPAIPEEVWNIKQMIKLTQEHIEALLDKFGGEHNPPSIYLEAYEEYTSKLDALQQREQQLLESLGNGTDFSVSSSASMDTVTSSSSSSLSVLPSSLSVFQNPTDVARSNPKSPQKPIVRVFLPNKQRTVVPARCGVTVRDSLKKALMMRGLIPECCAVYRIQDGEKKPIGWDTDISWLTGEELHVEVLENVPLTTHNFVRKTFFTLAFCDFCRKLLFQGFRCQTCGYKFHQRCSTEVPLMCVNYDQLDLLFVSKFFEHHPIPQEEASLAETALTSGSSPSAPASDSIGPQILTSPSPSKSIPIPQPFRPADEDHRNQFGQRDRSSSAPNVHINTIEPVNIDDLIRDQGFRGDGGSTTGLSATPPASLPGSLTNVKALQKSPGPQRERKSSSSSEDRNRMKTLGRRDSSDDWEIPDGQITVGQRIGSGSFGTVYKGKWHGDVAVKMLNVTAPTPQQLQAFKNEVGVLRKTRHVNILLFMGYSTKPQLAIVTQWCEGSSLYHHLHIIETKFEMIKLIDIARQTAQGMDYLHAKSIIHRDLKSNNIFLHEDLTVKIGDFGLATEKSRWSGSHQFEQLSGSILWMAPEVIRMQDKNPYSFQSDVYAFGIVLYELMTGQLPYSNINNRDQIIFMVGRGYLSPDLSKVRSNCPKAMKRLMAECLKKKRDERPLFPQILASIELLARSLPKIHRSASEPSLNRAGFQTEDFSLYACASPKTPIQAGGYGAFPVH
Chain of purified B-Raf protein (P15056 whole entry): as the sequence (P15056 whole entry V600E) above, with E600V counted along it

| B-Raf ITDRFCETSA activity (in words) (B-Raf [1]; [3]) | Thermal stabilization of B-Raf in CETSA HT screen (hit call) (B-Raf [2]) | B-Raf ITDRFCETSA activity (in words) (B-Raf [1]) | Compound | also measured |
| --- | --- | --- | --- | --- |
|  | Activity was also observed |  | CCn1c(=O)c(-c2cc(NC(=O)Nc3ccccc3)c(F)cc2Br)cc2cnc(NC)cc21 [DCC-2618] | Thermal stabilization of purified B-Raf protein by differential scanning fluorimetry (purified B-Raf protein): showed thermal stabilization |
|  | active | clear evidence of target engagement | CCCS(=O)(=O)Nc1ccc(F)c(C(=O)c2c[nH]c3ncc(-c4ccc(Cl)cc4)cc23)c1F [Vemurafenib, vemurafenib] |  |
|  | hits |  | COc1cc2ncnc(Oc3cccc(NC(=O)Nc4cc(C(C)(C)C(F)(F)F)on4)c3)c2cc1OC [CEP-32496] |  |
| clear evidence of target engagement |  |  | Cc1ccc(NC(=O)c2cccc(C(C)(C)C#N)c2)cc1Nc1ccc2ncn(C)c(=O)c2c1 [AZ628] |  |
|  |  | clear evidence of target engagement | CNc1ncc2cc(-c3cc(NC(=O)NCCC(C)(C)C)c(F)cc3C)c(C)nc2n1 [LY3009120] |  |
|  |  | clear evidence of target engagement | CCCS(=O)(=O)Nc1ccc(F)c(C(=O)c2c[nH]c3ncc(Cl)cc23)c1F [PLX4720] |  |

More lines, now with the values behind:

| Compound | B-Raf ITDRFCETSA activity (in words) (B-Raf [1]; [3]) | Thermal stabilization of B-Raf in CETSA HT screen (hit call) (B-Raf [2]) | B-Raf ITDRFCETSA activity (in words) (B-Raf [1]) | also measured |
| --- | --- | --- | --- | --- |
| CNS(=O)(=O)Nc1nccc(Cc2c(C)c3ccc(Oc4ncccn4)cc3oc2=O)c1F [CH-5126766] | weak activity |  |  | EC50 (B-Raf [1]): 10 µM |
| C[C@@H](Oc1cc(-c2cnn(C3CCNCC3)c2)cnc1N)c1c(Cl)ccc(F)c1Cl [Crizotinib, crizotinib] | inactive |  |  |  |
| O=C(Nc1ccc2[nH]nc(-c3ccncc3)c2c1)[C@@H]1CCN(CC(=O)N2CCN(c3ccc(-c4ncccn4)cc3)CC2)C1 [SCH772984] | inactive |  |  | EC50 (B-Raf [1]): > 31.6 µM |
| O=C(NOCCO)c1ccc2cncn2c1Nc1ccc(I)cc1F [GDC-0623] | inactive |  |  | EC50 (B-Raf [1]): > 31.6 µM |
| Cc1ccc(C(=O)Nc2ccc(CN3CCN(C)CC3)c(C(F)(F)F)c2)cc1C#Cc1cnc2cccnn12 [ponatinib] |  | showed activity |  |  |
| OCCn1cc(-c2ccc3c(c2)CC/C3=N\O)c(-c2ccncc2)n1 [GDC-0879] |  | hits |  |  |
| CC(C)(C)c1nc(-c2cccc(NS(=O)(=O)c3c(F)cccc3F)c2F)c(-c2ccnc(N)n2)s1 [Dabrafenib, dabrafenib] |  | active | clear evidence of target engagement |  |
